Molecules are shown by their SMILES. ≈ marks a conversion by molar mass, not a printed value.

For the assay, the system named is opfGWT1 expressing yeast. In words: Measurement of antimalarial agent activity using opfGWT1-expressing yeast (growth inhibition, MIC). The class given is cell-based. Particulars: Saccharomyces cerevisiae, 48 h, read-out: MIC (μg/m1) opfGWT1 […]; minimum concentration at which turbidity (660 nm) was 0.1 or less; SD culture medium, 96 well plate, 30° C. for 2 days; final highest concentration 25 μg/ml. The procedure: Compounds having antimalarial activity were screened, using the opfGWT1 expressing yeast, which expresses the malaria protozoa GWT1 gene. The opfGWT1 expressing yeast was prepared according to the methods described in Example 1 to Example 3 of WO 2004/048567.
The test compound was serially diluted twice in SD culture medium (Sabouraud-dextrose culture medium) so that the final highest concentration was 25 μg/ml and dispensed into a 96 well plate so as to obtain 50 μl/well. An overnight culture solution of the opfGWT1 expressing yeast diluted to 1/1000 was added therein in the amount of 50 μl/well addition, the plate was incubated at 30° C. for 2 days, then turbidity at 660 nm was measured.
On to `Nc1ncccc1C(=O)NCc1ccc(Cc2cccc(Cl)c2)s1`, for which the MIC is 12.5 µg/mL (≈ 34.9 µM).

With `Nc1ncccc1C(=O)NCc1ccc(Cc2cccc(Cl)c2)o1` [Reference Example A-4, 2-Amino-N-(5-(3-chloro-benzyl)-furan-2-ylmethyl)-nicotinamide], the MIC was found to be 6.25 µg/mL (≈ 18.3 µM).

Turning to `Nc1ncccc1C(=O)NCc1ccc(Cc2cccc(F)c2)o1` [Reference Example A-6, 2-Amino-N-(5-(3-fluoro-benzyl)-furan-2-ylmethyl)-nicotinamide], the MIC was 25 µg/mL (≈ 76.8 µM).

Turning to `Nc1ccc(C(=O)NCc2ccc(Oc3ccccc3)s2)c(N)n1` [Reference Example A-54, 2,6-diamino-N-(5-phenoxy-thiophene-2-ylmethyl)-nicotinamide], the MIC worked out at 25 µg/mL (≈ 73.4 µM).

For `Cc1cccc(Oc2ccc(CNC(=O)c3cccnc3N)s2)c1` [Reference Example A-64, 2-Amino-N-(5-m-tolyloxy-thiophen-2-ylmethyl)-nicotinamide], the MIC was determined as 12.5 µg/mL (≈ 36.8 µM).

Turning to `Nc1ncccc1C(=O)NCc1ccc(Oc2ccccc2)s1` [Reference Example A-67, 2-Amino-N-(5-phenoxy-thiophen-2-ylmethyl)-nicotinamide], the MIC stood at 12.5 µg/mL (≈ 38.4 µM).

Turning to `Nc1ncccc1C(=O)NCc1ccc(Oc2cccc(F)c2)s1` [Reference Example A-68, 2-Amino-N-(5-(3-fluoro-phenoxy)-thiophen-2-ylmethyl)-nicotinamide], the MIC stood at 12.5 µg/mL (≈ 36.4 µM).

For the molecule `Nc1ncccc1C(=O)NCc1ccc(Oc2ccc(F)cc2)s1` [Reference Example A-69, 2-Amino-N-(5-(4-fluoro-phenoxy)-thiophen-2-ylmethyl)-nicotinamide], the MIC was found to be 25 µg/mL (≈ 72.8 µM).

Consider `Nc1ncccc1C(=O)NCc1cc(Oc2ccccc2)cs1` [Reference Example A-72, 2-Amino-N-(4-phenoxy-thiophen-2-ylmethyl)-nicotinamide], for which the MIC came to 12.5 µg/mL (≈ 38.4 µM).

As to `Nc1ncccc1C(=O)NCc1ccc(Oc2cccc(Cl)c2)s1` [Reference Example A-73, 2-Amino-N-(5-(3-chloro-phenoxy)-thiophen-2-ylmethyl)-nicotinamide], the MIC was determined as 6.25 µg/mL (≈ 17.4 µM).

Take `CC(=O)c1ccc(C(=O)NCc2ccc(Oc3ccccc3)s2)c(N)n1` [Reference Example A-98, 6-Acetyl-2-amino-N-(5-phenoxy-thiophen-2-ylmethyl)-nicotinamide]: the MIC was 12.5 µg/mL (≈ 34 µM).

For the molecule `CCOCCNc1ccc(C(=O)NCc2ccc(Oc3ccccc3)s2)c(N)n1` [Reference Example A-105, 2-Amino-6-(2-ethoxy-ethylamino)-N-(5-phenoxy-thiophen-2-ylmethyl)-nicotinamide], the MIC amounted to 25 µg/mL (≈ 60.6 µM).

Consider `COCc1ccc(C(=O)NCc2ccc(Oc3cccc(F)c3)s2)c(N)n1` [Reference Example A-123, 2-Amino-N-(5-(3-fluoro-phenoxy)-thiophen-2-ylmethyl)-6-methoxymethyl-nicotinamide], for which the MIC turned out to be 25 µg/mL (≈ 64.5 µM).

`C=Cc1ccc(C(=O)NCc2ccc(Oc3ccccc3)s2)c(N)n1` [Reference Example A-168, 2-Amino-N-(5-phenoxy-thiophen-2-ylmethyl)-6-vinyl-nicotinamide]: the MIC was determined as 12.5 µg/mL (≈ 35.6 µM).

As to `Nc1ccc(C(=O)NCc2ccc(OCc3cccc(Cl)c3)cc2)c(N)n1` [Reference Example A-173, 2,6-Diamino-N-(4-(3-chloro-benzyloxy)-benzyl)-nicotinamide], the MIC came out at 12.5 µg/mL (≈ 32.6 µM).

Take `Nc1nc(CCF)ccc1C(=O)NCc1ccc(Oc2ccccc2)s1` [Reference Example A-177, 2-Amino-6-(2-fluoro-ethyl)-N-(5-phenoxy-thiophen-2-ylmethyl)-nicotinamide]: the MIC was found to be 25 µg/mL (≈ 67.3 µM).

On to `CCCCOCc1ccc(CNC(=O)c2ccc(COC)nc2N)cc1` [Reference Example A-182], for which the MIC was determined as 6.25 µg/mL (≈ 17.5 µM).

Regarding `CCCCOc1ccc(CNC(=O)c2ccc(COC)nc2N)cc1` [Reference Example A-188, 2-Amino-N-(4-butoxy-benzyl)-6-methoxymethyl-nicotinamide], the MIC came to 6.25 µg/mL (≈ 18.2 µM).

For the molecule `O=C(NCc1ccc(Oc2cccc(F)c2)s1)c1ccc2ncccc2c1` [Reference Example E-65, Quinoline-6-carboxylic acid (5-(3-fluorophenoxy)thiophen-2-ylmethyl)amide], the MIC stood at 25 µg/mL (≈ 66.1 µM).
